From the NIST ThermoML archive (doi:10.1021/je700099w) come the findings set out here.

The conditions of series [1]: 298.15 K; 101.33 kPa; Liquid.
The nature of series [2]: refractive index (Na D-line) (dimensionless). The note with it: 298.15 K, 101.33 kPa, Liquid.

SMILES strings stand for the structures. ± gives the expanded uncertainty stated by the source.

As usually defined, the mass density is the mass of a sample divided by its volume. What is called refractive index is the speed of light in vacuum divided by its phase velocity in the sample.

Consider `CCCCn1cc[n+](C)c1.F[P-](F)(F)(F)(F)F` [1-butyl-3-methylimidazolium hexafluorophosphate], for which the mass density in series [1] is 1367.3 ± 2.9 kg/m3. The refractive index in series [2] was found to be 1.40937 ± 0.0011.
As to `CCCCCCn1cc[n+](C)c1.F[P-](F)(F)(F)(F)F` [1-hexyl-3-methylimidazolium hexafluorophosphate], in series [1], the mass density is 1293.7 ± 2.5 kg/m3. In addition, the refractive index in series [2] is listed as 1.41787 ± 0.0011.
In the same order, the values of `CCCCCCCC[n+]1ccn(C)c1.F[P-](F)(F)(F)(F)F` [1-octyl-3-methylimidazolium hexafluorophosphate] are 1235.7 ± 2.2 kg/m3 and 1.42302 ± 0.0011.
As for `CCCCO` [butan-1-ol], the mass density in series [1] was 805.6 ± 0.5 kg/m3. Moreover, in series [2] (Standard Abbe refractometry), the refractive index is listed as 1.39726 ± 0.00072.
In the case of `CCCCCO` [pentan-1-ol], the mass density in series [1] worked out at 810.8 ± 0.8 kg/m3. The refractive index in series [2] (Standard Abbe refractometry) is recorded as 1.40797 ± 0.00075.
Regarding `CCCO` [propan-1-ol], the mass density in series [1] stood at 799.6 ± 0.8 kg/m3. Besides, the refractive index in series [2] (Standard Abbe refractometry) worked out at 1.38305 ± 0.00075.
